ChEMBL document CHEMBL1154793, “The lecanindoles, nonsteroidal progestins from the terrestrial fungus Verticillium lecanii 6144” (J Nat Prod, 2009)

What was measured:
[1] = target: T1, Androgen receptor (Homo sapiens) (UniProt P10275); assay: Antagonist activity at androgen receptor ligand binding domain expressed in african green monkey COS7 cells co-transfected with Gal4-LBD by luciferase reporter gene assay relative to control; type: cell-based; set-up: scale not given: the % may be the effect or the level left; conditions: COS-7
T1 sequence (whole entry): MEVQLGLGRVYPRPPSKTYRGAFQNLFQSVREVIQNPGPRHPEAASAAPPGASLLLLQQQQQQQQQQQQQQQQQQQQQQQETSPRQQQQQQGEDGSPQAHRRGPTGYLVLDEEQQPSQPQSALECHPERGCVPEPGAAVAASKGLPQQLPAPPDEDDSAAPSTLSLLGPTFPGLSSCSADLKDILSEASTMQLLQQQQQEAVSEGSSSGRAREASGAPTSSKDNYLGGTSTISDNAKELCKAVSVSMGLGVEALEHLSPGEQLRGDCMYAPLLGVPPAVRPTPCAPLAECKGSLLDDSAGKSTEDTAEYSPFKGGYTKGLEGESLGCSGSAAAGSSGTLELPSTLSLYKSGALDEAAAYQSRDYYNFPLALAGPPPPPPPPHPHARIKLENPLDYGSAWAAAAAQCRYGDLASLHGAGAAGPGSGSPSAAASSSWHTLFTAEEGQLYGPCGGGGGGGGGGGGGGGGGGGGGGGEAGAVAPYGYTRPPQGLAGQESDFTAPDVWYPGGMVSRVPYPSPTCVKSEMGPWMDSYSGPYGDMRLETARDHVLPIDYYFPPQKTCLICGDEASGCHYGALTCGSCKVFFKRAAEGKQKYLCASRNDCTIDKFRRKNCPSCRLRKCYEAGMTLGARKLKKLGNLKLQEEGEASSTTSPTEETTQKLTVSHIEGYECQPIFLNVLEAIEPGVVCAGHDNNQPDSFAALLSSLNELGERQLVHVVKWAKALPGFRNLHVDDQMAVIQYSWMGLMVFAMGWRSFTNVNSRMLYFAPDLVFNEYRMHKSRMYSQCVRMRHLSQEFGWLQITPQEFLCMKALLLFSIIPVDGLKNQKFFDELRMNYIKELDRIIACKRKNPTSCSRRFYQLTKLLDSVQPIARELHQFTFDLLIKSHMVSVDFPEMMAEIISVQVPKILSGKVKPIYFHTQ

[2] = target: T2, Mineralocorticoid receptor (Homo sapiens) (UniProt P08235); assay: Antagonist activity at mineralocorticoid receptor ligand binding domain expressed in african green monkey COS7 cells co-transfected with Gal4-LBD by luciferase reporter gene assay relative to control; type: cell-based; set-up: scale not given: the % may be the effect or the level left; conditions: COS-7
T2 sequence (whole entry): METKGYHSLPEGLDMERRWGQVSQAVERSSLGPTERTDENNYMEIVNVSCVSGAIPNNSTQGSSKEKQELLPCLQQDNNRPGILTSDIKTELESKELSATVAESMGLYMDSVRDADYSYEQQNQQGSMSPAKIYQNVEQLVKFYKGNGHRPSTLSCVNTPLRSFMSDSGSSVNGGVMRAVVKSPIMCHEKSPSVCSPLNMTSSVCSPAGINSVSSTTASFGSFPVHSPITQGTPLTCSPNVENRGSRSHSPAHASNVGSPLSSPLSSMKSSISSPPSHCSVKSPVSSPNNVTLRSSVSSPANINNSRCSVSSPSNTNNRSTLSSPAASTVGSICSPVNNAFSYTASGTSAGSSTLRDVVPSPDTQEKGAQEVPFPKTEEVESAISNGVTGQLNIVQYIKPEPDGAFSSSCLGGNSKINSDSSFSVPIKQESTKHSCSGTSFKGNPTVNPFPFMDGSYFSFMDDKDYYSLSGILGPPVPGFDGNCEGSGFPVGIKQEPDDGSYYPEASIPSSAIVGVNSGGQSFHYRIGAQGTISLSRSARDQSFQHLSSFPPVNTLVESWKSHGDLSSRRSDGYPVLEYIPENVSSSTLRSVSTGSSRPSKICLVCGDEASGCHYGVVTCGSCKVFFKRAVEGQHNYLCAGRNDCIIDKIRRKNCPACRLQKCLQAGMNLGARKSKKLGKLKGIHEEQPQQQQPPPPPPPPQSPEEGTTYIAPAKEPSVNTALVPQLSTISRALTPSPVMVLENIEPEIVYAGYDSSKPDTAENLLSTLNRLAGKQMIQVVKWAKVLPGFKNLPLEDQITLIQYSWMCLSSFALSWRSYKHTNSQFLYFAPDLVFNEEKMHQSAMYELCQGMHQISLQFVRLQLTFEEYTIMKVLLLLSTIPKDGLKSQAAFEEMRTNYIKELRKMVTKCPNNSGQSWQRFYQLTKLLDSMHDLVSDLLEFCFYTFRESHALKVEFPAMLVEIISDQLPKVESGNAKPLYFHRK

Estrogen receptor = target: T3, Estrogen receptor (Homo sapiens, UniProt P03372); assay: Agonist activity at estrogen receptor alpha ligand binding domain expressed in african green monkey COS7 cells co-transfected with Gal4-LBD by luciferase reporter gene assay; type: cell-based, COS-7
T3 sequence (P03372 whole entry): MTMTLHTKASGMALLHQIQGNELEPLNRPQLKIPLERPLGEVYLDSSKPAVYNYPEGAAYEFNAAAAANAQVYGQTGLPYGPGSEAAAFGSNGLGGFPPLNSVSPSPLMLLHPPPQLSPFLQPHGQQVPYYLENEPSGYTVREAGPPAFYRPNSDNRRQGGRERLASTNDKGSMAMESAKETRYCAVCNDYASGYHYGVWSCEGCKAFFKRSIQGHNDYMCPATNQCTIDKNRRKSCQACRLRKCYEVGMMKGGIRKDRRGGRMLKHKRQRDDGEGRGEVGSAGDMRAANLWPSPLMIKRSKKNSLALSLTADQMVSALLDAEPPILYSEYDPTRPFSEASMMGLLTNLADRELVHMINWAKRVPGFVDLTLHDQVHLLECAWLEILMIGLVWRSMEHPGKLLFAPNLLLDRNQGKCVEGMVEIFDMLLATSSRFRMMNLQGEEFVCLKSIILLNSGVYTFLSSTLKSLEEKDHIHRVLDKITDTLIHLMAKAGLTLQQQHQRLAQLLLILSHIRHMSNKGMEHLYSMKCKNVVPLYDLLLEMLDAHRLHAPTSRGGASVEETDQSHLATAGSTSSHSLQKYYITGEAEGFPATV

[3] = target: T4, Estrogen receptor (Homo sapiens) (UniProt P03372); assay: Agonist activity at estrogen receptor alpha ligand binding domain expressed in african green monkey COS7 cells co-transfected with Gal4-LBD by luciferase reporter gene assay relative to control; type: cell-based; conditions: COS-7
T4 sequence (whole entry): T3 sequence (P03372 whole entry)

Androgen receptor = target: T5, Androgen receptor (Homo sapiens, UniProt P10275)
T5 sequence (P10275 whole entry): T1 sequence (whole entry)

Estrogen receptor beta = Estrogen receptor beta (Homo sapiens, UniProt Q92731)
Estrogen receptor beta, sequence (Q92731 whole entry): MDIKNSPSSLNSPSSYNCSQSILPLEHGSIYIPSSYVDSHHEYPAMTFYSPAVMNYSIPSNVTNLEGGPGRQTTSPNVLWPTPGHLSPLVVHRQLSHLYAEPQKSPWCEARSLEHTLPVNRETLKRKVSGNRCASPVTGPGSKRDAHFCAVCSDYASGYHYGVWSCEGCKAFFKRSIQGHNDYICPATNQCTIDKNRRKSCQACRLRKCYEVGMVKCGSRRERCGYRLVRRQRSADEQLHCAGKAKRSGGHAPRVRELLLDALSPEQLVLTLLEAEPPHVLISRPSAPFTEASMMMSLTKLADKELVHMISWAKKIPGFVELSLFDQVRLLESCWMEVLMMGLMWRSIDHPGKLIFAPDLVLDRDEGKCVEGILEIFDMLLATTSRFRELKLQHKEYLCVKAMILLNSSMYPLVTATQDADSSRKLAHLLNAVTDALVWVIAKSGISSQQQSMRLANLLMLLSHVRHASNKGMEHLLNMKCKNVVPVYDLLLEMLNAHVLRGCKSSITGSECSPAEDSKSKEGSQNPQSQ
Description: Antagonist activity at estrogen receptor beta ligand binding domain expressed in african green monkey COS7 cells co-transfected with Gal4-LBD by luciferase reporter gene assay

Structure (SMILES) | Activity [1] | Activity [2] | EC50 (Estrogen receptor) | Activity [3] | IC50 (Androgen receptor) | IC50 (Estrogen receptor beta)
CC1(C)[C@H](O)CC[C@]2(C)[C@@]3(C)c4[nH]c5ccccc5c4C[C@@H]3CC[C@@]12O [LECANINDOLE D] | 41% | 82% | > 10 µM | 35% | > 10 µM | > 3 µM
CC1(C)C(=O)CC[C@]2(C)[C@@]3(C)c4[nH]c5ccccc5c4C[C@@H]3CC[C@@]12O [LECANINDOLE B] | 32% | 47% | > 10 µM | 8% | > 10 µM | > 10 µM
